Measured values reported in patent USRE44613E1, “N-substituted glycine derivatives: hydroxylase inhibitors” (GlaxoSmithKline LLC, priority 2007, dated 2013).

Test system: Epo protein produced by Hep3B cell line
Test: Epo protein produced by Hep3B cell line using ELISA method
Type: cell-based
Conditions: Homo sapiens; Hep3B cells, 48 hours incubation, DMEM without serum; maximum concentration tested 100 micromolar; range stated jointly for ELISA and AlphaLISA
Experimental: Measure Epo Protein Produced by Hep3B Cell Line Using ELISA Method.
Hep3B cells obtained from the American Type Culture Collection (ATCC) are seeded at 2×10^4 cells/well in Dulbecco's Modified Eagle Medium (DMEM)+10% FBS in 96-well plates. Cells are incubated at 37 deg C./5% CO2/90% humidity (standard cell culture incubation conditions). After overnight adherence, medium is removed and replaced with DMEM without serum containing test compound or DMSO negative control. Following 48 hours incubation, cell culture medium is collected and assayed by ELISA to quantitate Epo protein.

For CC(C)(C)c1ccc(Cn2nc(-c3ccc(C(C)(C)C)cc3)c(O)c(C(=O)NCC(=O)O)c2=O)cc1 [Example 26, N-[(6-[4-(1,1-Dimethylethyl)phenyl]-2-{[4-(1,1-dimethylethyl)phenyl]methyl}-5-hydroxy-3-oxo-2,3-dihydro-4-pyridazinyl)carbonyl]glycine], the EC50 was > 100 µM.
